This is an account of results in ChEMBL document CHEMBL1157539, “Thousands of chemical starting points for antimalarial lead identification” (Nature, 2010).

This test concerns Plasmodium falciparum. Description: GSK_TCMDC: Inhibition of Plasmodium falciparum 3D7 in whole erythrocytes, using parasite LDH activity as an index of growth. The class given is functional, organism-based. Particulars: Plasmodium falciparum, 3D7.

Consider `COc1cccc2cc(C(=O)N[C@@H](CC(C)C)C(=O)N[C@H](C=NN3CCOC3=O)CC(C)C)oc12`, for which the XC50 came to 741 nM.

`CN(Cc1cccc(O)c1)C1CCN(c2cc(NC(=O)c3ccc(F)cc3)ccn2)CC1` had an XC50 of 956 nM. Next, `CSc1ccc(C=CC(=O)NC(=O)c2ccccc2O)cc1`: 289 nM.

`COc1ccc2ncc(F)c(CCN3CCC(NCc4cc(Br)c5c(c4)OCCO5)CC3)c2n1` registered an XC50 of 190 nM.

For `CCCOc1cc2c(cc1OCCC)C(C=Cc1ccc(Cl)cc1Cl)=NC(C)C2` (centres undefined), the XC50 was 370 nM. Consider `O=C(NCCN1CCCC1)c1cccc(-c2ccc(-c3nc4ccccc4[nH]3)cc2)c1`, for which the XC50 amounted to 919 nM. Next, `CN(C)Cc1cccc(-c2ccc(Nc3nccc(NCC(O)c4ccccc4)n3)cc2)c1` (centres undefined): 136 nM; `Cc1c(-c2cccc(CNCCc3ccc(Cl)cc3)c2)cnc(N)c1C`: 1040 nM; `Cc1nc(-c2nc(N3CCC(O)CC3)ncc2-c2ccsc2)sc1C`: 939 nM.

`CCOC(=O)C(CO)NC(=O)c1ccc([N+](=O)[O-])o1` (centres undefined) came in with an XC50 of 289 nM. Next, `Nc1ncc(-c2ccc(Br)cc2)c(N)n1`: 920 nM. Next, `COC(=O)C(C)(C)c1ccc(CC(C)NCC(O)c2cccc(C(F)(F)F)c2)cc1` (centres undefined): 837 nM; `COc1ccc(CCNCCCCCNCCc2ccc(Cl)cc2)cc1OC`: 741 nM; `NC(=O)c1cc2nc(NC3CCC3)nc(Nc3cccc4[nH]ncc34)c2[nH]1`: 732 nM. The compound `COc1ccc(-c2ccc(CNC(=O)c3cccc(C#N)c3)c(F)c2)cc1CN1CCCN(C)CC1` registered an XC50 of 804 nM. The result for `c1cncc(CCNCc2ccc(-c3cccc(-c4nc5ccccc5[nH]4)c3)cc2)c1` reads 164 nM; that for `CN(C)c1ccc2nc(N)nc(N)c2c1Cl`, 475 nM; that for `O=C(/C=C/c1cccs1)NC1CCC(CN2CCC(c3c[nH]c4ccccc34)CC2)CC1` (centres undefined), 1050 nM.

`CCCCN(CCCC)CCNC(=O)c1ccc(-c2nc3cc(Cl)ccc3[nH]2)c(OCC)c1` came in with an XC50 of 570 nM. The result for `O=C(COc1ccc(C(=O)c2ccccc2)cc1)Nc1nccs1` reads 887 nM; that for `O=C(c1ccc([N+](=O)[O-])o1)N1CCN(c2ccccc2)CC1`, 40 nM; that for `Oc1ccc2[nH]c(-c3cccc(F)c3)nc2c1CN1CCCC1`, 795 nM. The result for `O=[N+]([O-])c1ccc2c(c1)c1ccccc1n2Cc1ccccc1O` reads 1110 nM; that for `c1ccc2c(c1)CN(Cc1ccsc1)CC1(CCN(Cc3c[nH]c4cnccc34)CC1)O2`, 1150 nM; that for `O=C(NC1CCC(CN2CCC(c3c[nH]c4ccccc34)CC2)CC1)[C@H]1Cc2ccccc2CN1` (some centres undefined), 948 nM. Next, `Cc1cc(N/N=C/c2ccccc2[N+](=O)[O-])c2ccccc2n1`: 776 nM. Compound `CCCCc1cc(NCC)nc(Nc2cccc(OC)c2)n1` had an XC50 of 922 nM.

On to `Cc1cc(NC(=O)CCCN2CCN(c3cccc(Cl)c3Cl)CC2)ccc1N1CCN(C(C)C)CC1`, for which the XC50 turned out to be 757 nM. The result for `Cn1cncc1C(=O)Nc1cccc(-c2cccc(-c3nc4cc(C(F)(F)F)ccc4[nH]3)c2)c1` reads 205 nM. The result for `O=[N+]([O-])c1cccc(-c2nc3cc(C4=NC5CCCCC5N4)ccc3[nH]2)c1` (centres undefined) reads 195 nM; that for `CN1CC[C@@H](Oc2cc(C(=O)NCc3ccc(Cl)c(Cl)c3)ccc2C(F)(F)F)C1`, 1250 nM. Regarding `CCCCCN1CCC(NS(=O)(=O)c2cccc(C(=O)Nc3cccc(C(F)(F)F)c3)c2)C1` (centres undefined), the XC50 worked out at 826 nM.

`Cc1nc2nc(N)nc(N)c2c(C)c1Cc1ccc(O)cc1` registered an XC50 of 236 nM. Next, `Cc1cc(-c2nc3ccc(N4CCN(C)CC4)cc3[nH]2)nn1Cc1cc(Cl)ccc1OCC(C)C`: 878 nM.

For the compound `c1ccc(CCNc2ncnc3c2[nH]c2ccccc23)cc1`, the XC50 worked out at 601 nM.

In turn, `Oc1cccc(-c2cnc3ccc(NCc4ccc(F)cc4)nn23)c1` showed an XC50 of 1080 nM. `O=C(C1COc2ccccc2O1)N(CCCn1ccnc1)Cc1csc(-c2ccc(CNCc3ccccc3)cc2)n1` (centres undefined) showed an XC50 of 619 nM.

On to `Cc1nc2nc(N)nc(N)c2c(C)c1Cc1ccccc1Br`, for which the XC50 came out at 60.2 nM. The result for `Cc1ccc2[nH]c(Nc3ccc(Nc4nc5cc(C)ccc5[nH]4)c(C)c3)nc2c1` reads 769 nM; that for `CCN(C)c1cc(C(=O)N[C@@H](Cc2ccccc2)[C@H](O)CNC(C)(C)c2cccc(OC)c2)cc(N2CCCC2=O)c1`, 73 nM; that for `O=C(NC1CCC(N2CCC(c3nc4ccccc4s3)CC2)CC1)c1cc2ccccc2[nH]1` (centres undefined), 926 nM. Next, `COCc1cccc(-c2cc(-c3ccc(S(C)(=O)=O)cc3)cnc2N)c1`: 1000 nM. For `CC(C)CN1CCCN(Cc2cccc(NC(=O)c3ccc(-c4ccccc4)cc3)c2)CC1`, the XC50 came out at 883 nM. Next, `CNC(=O)c1ccc2[nH]cc(C3CCN(CC4CCC(NC(=O)/C=C/c5ccccc5Cl)CC4)CC3)c2c1` (centres undefined): 836 nM. The result for `OC[C@H](Nc1nc(C(Oc2ccccc2)c2ccccc2)nc2[nH]ncc12)c1ccccc1` (some centres undefined) reads 854 nM; that for `CCOC(C(=O)OCC1CCCN1C(C)C)(c1ccccc1)c1ccccc1` (centres undefined), 763 nM. `CC(=O)Nc1ncc(C(=O)Nc2cccc(-c3ccc(-c4nc5cc(F)ccc5[nH]4)cc3)c2)s1`: the XC50 was 622 nM. On to `CCC[C@@H]([C@@H](CC(C)C)C(=O)N[C@H](C(=O)Nc1nccs1)C(C)(C)SCCNC(=O)OCC)N(O)C=O`, for which the XC50 stood at 173 nM.

Compound `OC1CCCN(Cc2cccc(-c3ccc(-c4nc5cc(C(F)(F)F)ccc5[nH]4)cc3)c2)C1` (centres undefined) registered an XC50 of 690 nM.

For `CCn1ccc2c(N3CCCCS3(=O)=O)cc(C(=O)N[C@@H](Cc3ccccc3)[C@H](O)CNC3CCCCC3)cc21`, the XC50 came to 122 nM. The result for `Cc1nc(-c2cccc(C(=O)N(Cc3cncn3Cc3cccc(C(F)(F)F)c3)CC3CC3)c2)cs1` reads 941 nM; that for `N=C(NCCc1ccc(Cl)c(Cl)c1)c1ccc2ccccc2c1`, 514 nM; that for `O=C1c2ccccc2CCC1CCN1CC=C(c2c[nH]c3ccccc23)CC1` (centres undefined), 697 nM. Next, `COC1(C)Oc2ccc3cccc([N+](=O)[O-])c3c2C1=O` (centres undefined): 635 nM.

Take `CNC(=O)c1ccc2nc(C3CC3)n(CC3CCN(S(=O)(=O)c4cccc(Cl)c4)CC3)c2c1`: the XC50 worked out at 651 nM. The result for `Cc1ccc(NS(=O)(=O)c2ccc(-c3ccccc3)cc2)c(Cn2cnc(N3CCCNCC3)cc2=O)c1` reads 859 nM; that for `CCCC(C)C(=O)N1CCOC(COCc2cccc(C(F)(F)F)c2)(c2ccc(Cl)cc2)C1` (centres undefined), 403 nM; that for `Cc1noc(C)c1-c1cccc(CNCc2cccc(-c3ccc(-c4nc5cc(C(F)(F)F)ccc5[nH]4)s3)c2)c1`, 166 nM. Next, `Cc1cc(N2CCCCC2)nc2ccc(NC(=O)c3cc(=O)c4ccccc4o3)cc12`: 716 nM; `CCc1c(C)c(C#N)c2nc3ccccc3n2c1NCc1ccco1`: 698 nM. The result for `O=C(/C=C/c1ccc(Cl)c(Cl)c1)NCCCCCN1CCC(NC(=O)Nc2ccc(Cl)cc2Cl)CC1` reads 640 nM; that for `Cc1cc(N2CCOCC2)nc2ccc(NC(=O)c3cccc([N+](=O)[O-])c3)cc12`, 890 nM. As for `Cc1cccc2nc(-c3ccc(-c4cccc(NC(=O)Nc5ccccc5)c4)cc3)[nH]c12`, the XC50 stood at 715 nM. The result for `Cc1ccccc1/N=C1\NC(=S)N(c2cccc(C(F)(F)F)c2)C12CCC(C(C)(C)C)CC2` (centres undefined) reads 973 nM.
